According to patent US20150328221A1, “COMPOUNDS FOR PROTECTION OF PHOTORECEPTOR CELLS AND FOR ENHANCING VISUAL FUNCTION UNDER LOW LIGHT CONDITIONS” (Allergan, Inc., priority 2014, published 2015):
Entries after “also recorded” stand apart in the source; their conditions may differ.

Key:
5-HT1A receptor = biological target: T1, 5-HT1A receptor (Homo sapiens, UniProt P08908); conditions: description of the compound; cited from earlier work
T1 sequence (P08908 1-422): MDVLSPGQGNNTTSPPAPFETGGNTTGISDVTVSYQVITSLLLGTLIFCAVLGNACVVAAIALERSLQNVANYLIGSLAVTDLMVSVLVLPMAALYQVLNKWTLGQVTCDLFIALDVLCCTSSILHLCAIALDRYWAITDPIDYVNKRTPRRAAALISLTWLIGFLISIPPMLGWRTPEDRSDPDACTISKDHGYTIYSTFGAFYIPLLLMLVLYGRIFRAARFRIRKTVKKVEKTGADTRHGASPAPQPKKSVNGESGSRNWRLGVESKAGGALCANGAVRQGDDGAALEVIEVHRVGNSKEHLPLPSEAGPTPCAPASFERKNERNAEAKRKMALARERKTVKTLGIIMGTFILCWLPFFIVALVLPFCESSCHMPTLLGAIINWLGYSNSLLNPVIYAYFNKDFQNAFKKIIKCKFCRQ

[1] = system: rod photoreceptors / outer nuclear layer; assay: Histological analysis (H&E) of retinal architecture after blue light-induced injury; type: in vivo, rat; conditions: for retinal lesion (loss of photoreceptors) measured in the vertical meridian of the eye: blue light injury, maximal damage 1.5 mm superior to the optic nerve head; for protection of structural integrity of the outer nuclear layer: doses greater of 1 mg/kg, blue-light induced damage model in rodent; for outer nuclear cell count and retinal structure (H&E stained retinas): post-blue light, drug-treated vs naive and vehicle-treated retinae
Experimental: Protection of retinal architecture measured as the total count of photoreceptors (FIG. 4B) or the size of the lesion (FIG. 4C) in the section taken through the vertical meridian of the eye. (FIG. 4D) H&E stained sections of from the median respondent, naïve and vehicle- or drug-treated animals illustrate the level protection achieved by treatment with 1 mg/kg zalospirone.
On Day 7 post BL-exposure, animals were anesthetized with Euthasol and decapitated. Following decapitation, bilateral globes were enucleated and marked at the 12:00 position with black tissue ink. Both eyes from each animal were incubated in 5 mL of Davidson's fixative special overnight at RT. After ˜24 hours, both eyes were dehydrated in 50% ethanol (EtOH) for 1 hour at RT followed by storage in 70% EtOH at RT until paraffin processing. Eyes were then shipped to Premier Lab (Longmont, Colo.) for paraffin processing and embedding. Five micrometer thick paraffin sections were cut through the optic nerve head and mounted on glass.
For each eye, three H&E-stained slides were generated. Slides containing H&E-stained cross sections were imaged using the Nanozoomer whole slide scanner employing a 40× objective under bright field optics.
(§1) Protection of rod photoreceptors by zalospirone from light induced injury is exemplified in FIG. 4 and by eptapirone in FIG. 5 below. Doses greater of 1 mg/kg provide 100% protection of structural integrity of the outer nuclear layer and 80% of retinal signaling in a blue-light induced damage model in rodent.

rod photoreceptors = assay: Scotopic flash ERG (a- and b-wave) after blue light-induced injury, model of dry AMD; type: in vivo, rat; conditions: for protection of retinal signaling: doses greater of 1 mg/kg, blue-light induced damage model in rodent; for protection of rod photoreceptors from blue light-induced injury: model of dry AMD
From the text: Seven days after exposure to 10,000 lux blue light, the amplitude of a- and b-wave components of the electroretinogram (ERG) is reduced to 20-30% of its pre-exposure amplitude (FIG. 4A). The ERG signals from median respondents in each group are shown in the inset in A. The tracing designated “α” illustrates the signal evoked in a naïve animal when stimulated with 20 candela-sec/m^2 white light. […] Full dose response showing the dose and corresponding retinal concentration of zalospirone is shown in the bar graph (FIG. 4A).
Seven days after exposure to 10,000 lux blue light, the amplitude of a- and b-wave components of the electroretinogram (ERG) is reduced to 20-30% of its pre-exposure amplitude (A). Full dose response showing the dose and corresponding retinal concentration of eptapirone is shown in the bar graph (A). The respective doses and corresponding retinal concentrations achieved following subcutaneous administration of eptapirone are shown on the abscissa. Data is plotted as the mean±SEM percentage of a- or b-wave measured prior to blue light-induced retinal degeneration. Protection of retinal architecture measured as the area of the outer nuclear layer (B) or the size of the lesion (C) in a section taken through the vertical meridian of the eye. H&E stained sections of from the median respondent, naïve and vehicle- or drug-treated animals illustrate the level protection achieved by treatment with 0.3 mg/kg eptapirone.
(§2) Bilateral flash ERG recordings on the dual dome Espion E^3 system (Diagnosys, LLC) were made prior to (baseline) and on the Day of zalospirone administration. Animals were anesthetized with a cocktail of 30 mg/mL Ketamine/0.2 mg/mL Dexmedetomidine (i.m.) to reach a final dose of 15 mg/kg Ketamine and 0.1 mg/kg Dexmedetomidine. Animals' eyes were given 1 drop each of 1% phenylephrine, 0.5% atropine and 1% proparacaine, sequentially. Noninvasive platinum wire loop electrodes moisturized with artificial tears (Goniovisc, Sigmapharmaceuticals, Inc.) were placed over the eyes, a reference electrode were placed in the bridge of the nose and a ground wire into the tail. Scotopic ERG measurements were made at 1e^−5 to 20 cd s/m^2. Photopic ERG measurements for S- and M-cone function were made at 8e^−4 to 40 cd s/m^2. The recording filter was set at 300 Hz.
as §1

scotopic b-wave = assay: Scotopic b-wave ERG with treatment after blue light-induced injury; type: in vivo, Sprague Dawley rat; conditions: single subcutaneous 3 mg/kg given after blue light injury (3.5 hour, 10,000 lux); stimulus 10^−5 candela-sec/m^2; N=8
Experimental: FIGS. 9A and 9B illustrate that treatment with zalospirone restores of the amplitude of the scotopic b-wave following light induced injury. FIG. 9A is a representative ERG recordings from a Sprague Dawley rat which was dark adapted overnight and exposed to white light stimulus (10^−5 candela-sec/m^2) are shown at baseline before injury, 7 days following exposure to a 3.5 hour exposure to 10,000 lux blue light and again at 3 days later following a single subcutaneous administration to 3 mg/kg zalospirone. […] The data are presented as mean±SEM, N=8.
as §2, with “The recording filter was set at 300 Hz.” left out

cone photoreceptors [2] = assay: Anti-opsin immunofluorescence in retinal cross sections after blue light-induced injury; type: in vivo, rat; conditions: pretreatment with 3 mg/kg
From the text: (§3) FIG. 6A to 6E illustrate that zalospirone protects cone photoreceptors from blue light-induced injury in a model of dry AMD. […] The amplitude of the medium-wave (blue- and green-light responsive) cone driven ERG signals were reduced by >90% while the short-wave (ultra violet and blue-light responsive) cone signals were virtually eliminated (A, B).
A subset of 5 μm thick paraffin sections cut through the vertical meridian (prepared by Premier Labs) was not stained with H&E, but instead was subjected to anti-opsin immunofluorescent staining to detect both SW and M/L cones. Briefly, sections were baked at 60° C. for 1 hr, deparaffinized in xylene, rehydrated in a decreasing series of alcohols, rinsed in PBS 3×, and blocked in PBS containing 0.1% Tween 20, 0.1% Triton×100, and 5% normal donkey serum for 2 hr at RT. Slides were reacted 0/N at 4° C. with a combined mixture of anti-SW (SCBT; SC-14363) and -M/L (Millipore, Ab5405) opsin antibodies diluted to 1:200 and 1:500, respectively in a PBS buffer containing 0.1% Tween 20, 0.1% Triton×100, and 5% normal donkey serum. To control for specificity of staining, an additional subset of slides were reacted with a combined mixture of anti-SW opsin antibody preadsorbed with sc-14363/blocking peptide and normal rabbit IgG. […] The number of SW and M/L cones was manually counted for both slides from each study eye in dual channel fluorescent images. […]

cone photoreceptors [3] = assay: Photopic ERG for S- and M-cone function after blue light-induced injury; type: in vivo, rat; conditions: pretreatment with 3 mg/kg; 7 days after 10,000 lux blue light
From the text: as §3, §2
The protection of cone photoreceptors by zalospirone from light induced injury is exemplified in FIG. 6 below.

retinal signaling = assay: Full-field ERG (modified ISCEV protocols) in normal animals, scotopic and photopic; type: in vivo, rat
Experimental: FIG. 7 illustrates that zalospirone selectively enhances the scotopic b-wave. Visual function was assessed in vivo in the rat using standard ISCEV protocols. Measurements were made under scotopic (dark-adapted) conditions (“A”-“C”) or photopic conditions (“D”,“E”). In dark adapted animals, ERG recordings elicited by low intensity stimuli (1×10^−4 candela-sec m^2) treatment with 3 mg/kg zalospirone results in a 50% enhancement of the b-wave (“A”). […] Under photopic conditions signals predominately driven by the cone photoreceptors, the photopic b-wave (“D”) or ERG response to 20 Hz flicker (“E”) were unaffected by treatment with zalospirone (3 mg/kg).
FIG. 8 “A” to “C” illustrates that zalospirone selectively enhances the scotopic b-wave.
as §2
In addition to protecting retinal photoreceptors and preserving their function during exposure to an insult, the enhancement or normalization of retinal signaling after injury would be provide significant value in degenerative retinal diseases. The International Society for Clinical Electrophysiology of Vision (ISCEV) provides standards for ascertaining the effects of interventions on retinal signaling. […] Expanding on the observation that scotopic signaling was enhanced in normal animals, it was hypothesized that zalospirone could contribute to the normalization of retinal signaling following injury.

[4] = 7 days after 10,000 lux blue light
[5] = 3 mg/kg, dark adapted, 20 candela-sec m^2
[6] = 3 mg/kg, photopic conditions, normal animals

| enhancement of the scotopic b-wave (retinal signaling; 3 mg/kg, dark adapted, low intensity stimuli 1×10^−4 candela-sec m^2) [%] | ERG response to 20 Hz flicker (retinal signaling; [6]) | photopic b-wave (retinal signaling; [6]) | scotopic signaling, modified ISCEV full-field electroretinography (retinal signaling; rat) | Compound | 5-HT1A receptor activity (5-HT1A receptor) | retinal lesion (loss of photoreceptors) measured in the vertical meridian of the eye [1] | protection of structural integrity of the outer nuclear layer [1] [%] | outer nuclear cell count and retinal structure (H&E stained retinas) [1] | protection of retinal signaling (rod photoreceptors) [%] | protection of rod photoreceptors from blue light-induced injury (rod photoreceptors; [4]) | scotopic b-wave amplitude after injury compared with baseline (scotopic b-wave) | cones by short wave and medium/long wave opsin immunofluorescent staining (cone photoreceptors [2]) | protection of the ERG signal (rod photoreceptors; median animal dosed with 3 mg/kg, 7 days after 10,000 lux blue light, 20 candela-sec/m^2 white light stimulus) | photopic b-wave amplitude (medium-wave and short-wave cone driven ERG signals) (cone photoreceptors [3]) | rod-based signaling (scotopic b-wave) (retinal signaling; 3 mg/kg, dark adapted rats, low intensity stimuli ≦10^−3 candelas-sec/m^2) | retinal oscillatory potentials (retinal signaling; [5]) | scotopic b-wave at greater intensity stimuli (retinal signaling; [5]) |
| --- | --- | --- | --- | --- | --- | --- | --- | --- | --- | --- | --- | --- | --- | --- | --- | --- | --- |
|  |  |  |  | Cn1c(=O)cnn(CCCCN2CCN(c3ncccn3)CC2)c1=O [eptapirone, 4-Methyl-2-[4-(4-pyrimidin-2-yl-piperazin-1-yl)-butyl]-2H-[1,2,4]triazine-3,5-dione] | very potent and highly selective 5-HT1A receptor full agonist | almost entirely prevents this lesion from forming | 100 | maintains outer nuclear cell count but also normalizes retinal structure | 80 | protects rod photoreceptors from blue light-induced injury |  |  |  |  |  |  |  |
| 50 | unaffected | unaffected | selectively enhanced scotopic signaling | O=C1[C@@H]2C3C=CC([C@H]4CC[C@@H]34)[C@@H]2C(=O)N1CCCCN1CCN(c2ncccn2)CC1 [zalospirone, (3aα,4α,4aβ,6aβ,7α,7aα)-hexahydro-2-(4-(4-(2-pyrimidinyl)-1-piperazinyl)butyl)-4,7-etheno-1H-cyclobut(f)isoindole-1,3(2H)-dione] | selective 5-HT1A partial agonist | almost entirely prevents this lesion from forming | 100 | maintains outer nuclear cell count but also normalizes retinal structure | 80 | protects rod photoreceptors from blue light-induced injury | fully restored the b-wave to its baseline amplitude; also recorded: restored b-wave amplitudes to the baseline levels | virtually identical to that in naïve animals; also recorded: prevents the loss of cones | complete protection | significantly protected; also recorded: largely restored ERG signaling | preferentially augments rod-based signaling | neither the b-wave (“B”) nor the retinal oscillatory potentials (“C”) were affected | neither the b-wave (“B”) nor the retinal oscillatory potentials (“C”) were affected |
